From article PMC10835127, “Viruses traverse the human proteome through peptide interfaces that can be biomimetically leveraged for drug discovery” (Proceedings of the National Academy of Sciences of the …, 2024)
Where two headings read alike, the source gives them in different places.

What was measured:
MitoNEET = target: T1, MitoNEET (Homo sapiens, UniProt Q9NZ45); experiment: In vitro NEET [2Fe-2S] cluster release, MitoNEET; type: biochemical; conditions: recombinant MitoNEET, 37 °C, absorbance 460 nm
T1 construct: MitoNEET ([60]) and NAF-1 ([61]) cytosolic domains and MiNT ([62]) were purified from E. coli as previously published; made in house; host or cells: E. coli
T1 sequence (Q9NZ45 32-108 limits assumed): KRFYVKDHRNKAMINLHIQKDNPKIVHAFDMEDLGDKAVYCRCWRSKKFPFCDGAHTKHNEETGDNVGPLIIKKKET
Method: (§1) MitoNEET ([60]) and NAF-1 ([61]) cytosolic domains and MiNT ([62]) were purified from E. coli as previously published. Experiments were performed in 96-well plates at 37 °C with […] of Fe-S cluster in a buffer composed of 50 mM Tris-HCl pH 7 and 100 mM NaCl. dEF3122 was dissolved in dimethyl sulfoxide (DMSO) at 10 mM. CPEP31 was dissolved in PBS at 10 mM. After 20 min of incubation of the protein with the molecule, NEET cluster release was followed by measuring the absorbance at 460 and 800 nm over time using a plate reader (SpectraMax ID3). The absorbance at 460 nm was corrected for the variation of the baseline (absorbance at 800 nm) over time and normalized at 1 at the beginning of the kinetics.

[1] = Microsomal stability, mouse liver microsomes; type: in vitro ADME; conditions: male, CD-1, mouse, pH 7.4; murine liver microsomes; read-out: CLint mLM
Method: Tested compounds (1 μM) were incubated with pooled human liver microsomes (Xenotech; pooled male and female) and pooled mouse liver microsomes (Xenotech; male CD-1 mice).
Microsomes (final protein concentrations of 0.25 and 0.5 mg/ml, 0.1 M phosphate buffer pH 7.4) containing tested compound (final substrate concentration 1 μM; final DMSO concentration 0.25 %) were preincubated at 37 °C prior to the addition of NADPH (final concentration 1 mM) to initiate the reaction. The final incubation volume was 200 μl. 3 species-specific control compounds were included with each species. At 5 time points (0, 5, 10, 20, and 40 min), reactions were stopped by transferring 50 μl of the incubation mixture into 0.5 μM carbamazepine in acetonitrile. Tested compound concentrations were analyzed by LC-MS/MS and the resulting data were used to determine the half-life and intrinsic clearance of the compound in each

in vivo [2] = conditions: male, CD1, mouse, 20 mg/kg, 20 mg/kg per os
influenza A H1N1 virus = experiment: microbe, parasite or virus in culture; conditions: H1N1, A549, read-out: Neuraminidase activity assay IC50
MiNT = target: T2, MiNT (Homo sapiens, UniProt P0C7P0); experiment: In vitro NEET [2Fe-2S] cluster release, MiNT; type: biochemical; conditions: recombinant MiNT, 37 °C, absorbance 460 nm
T2 construct: made in house; host or cells: E. coli
T2 sequence (P0C7P0 15-127): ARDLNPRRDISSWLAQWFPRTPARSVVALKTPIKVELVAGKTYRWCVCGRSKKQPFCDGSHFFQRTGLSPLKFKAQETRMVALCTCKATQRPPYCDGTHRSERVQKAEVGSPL
Method: as §1

[3] = Plasma protein binding by equilibrium dialysis, murine; type: in vitro ADME; conditions: mouse, read-out: PPB (% bound)
Method: The free and bound fractions of the tested compounds in mouse and human plasma were determined by equilibrium dialysis using a 96-well Teflon dialysis unit (HTDialysis plate complete unit, HT Dialysis, USA). The HTDialysis plate complete unit consists of a 96-well plate with wells vertically bisected by a semipermeable membrane (membranes strips 12 to 14 kDa) creating two chambers. A 125 μL aliquot of plasma containing tested compound at 10 μM was placed on one side and 125 μL of Dulbecco‘s phosphate buffered saline (D-PBS) on the other. The plate was incubated at 37 °C for 6 hr under gentle agitation. Then, samples from both plasma and buffer compartment were analyzed by a LC-MS/MS method to measure the free fraction and the bound fraction to the plasma proteins. […]

in vivo [4] = conditions: male, Sprague Dawley, rat, 50 mg/kg, 50 mg/kg per os
Method: For this molecule, both antiviral potency (IC50 of 3 nM) and PK properties were improved, with low clearance and high exposure in mouse plasma. […] The tissue distribution was also assessed at two different time points (2 and 24 h) after per os administration in mice (20 mg/kg) and rats (50 mg/kg) (Fig. 5C). […] Such low lung/plasma ratio precluded the use of dEF3122 in respiratory diseases such as influenza without further optimization.

**Q.** With `O=C(Nc1scc(C2CCc3ccccc3C2)c1C(=O)O)c1ccccc1` (stereo not shown) [dEF3122] as the compound, how does the “interaction by [2Fe-2S] cluster release assay” value (MitoNEET) read?
**A.** validated the interaction

**Q.** And the microsomal CLint at 1 µM [1]?
**A.** 24 µL/min/mg

**Q.** And the Kp (in vivo [2]; Liver:Plasma Ratio, 2 h)?
**A.** 0.45

**Q.** And the Kp (in vivo [2]; Liver:Plasma Ratio, 24 h)?
**A.** 0.88

**Q.** And the Kp (in vivo [2]; Lung:Plasma Ratio, 2 h)?
**A.** 0.12

**Q.** What about the Kp (in vivo [2]; Lung:Plasma Ratio, 24 h) of the same compound?
**A.** 0.13

**Q.** And the IC50 (influenza A H1N1 virus)?
**A.** 3 nM

**Q.** And the “interaction by [2Fe-2S] cluster release assay” value (MiNT)?
**A.** validated the interaction

**Q.** And the fraction unbound at 6 h, 10 µM [3]?
**A.** 0.001

**Q.** And the Kp (in vivo [4]; 2 h, read-out: Liver:Plasma Ratio)?
**A.** 0.91

**Q.** What about the Kp (in vivo [4]; 2 h, read-out: Lung:Plasma Ratio) of the same compound?
**A.** 0.11

**Q.** And the Kp (in vivo [4]; 24 h, read-out: Liver:Plasma Ratio)?
**A.** 0.78

**Q.** What about the Kp (in vivo [4]; 24 h, read-out: Lung:Plasma Ratio) of the same compound?
**A.** 0.18
